Patent US8501807B2, “Pentaerythritol derivatives” (priority 2004, dated 2013)

How the values were obtained:
[1] = test system: hairless Guinea pigs; test: Evaluation of the increase of moisture content in the skin (Corneometer, acetone-damaged skin barrier); format: in vivo; details: flank, 200 μl applied after 30 min acetone patch; for moisture content of the stratum corneum, 6 h after sample application: relative to content directly after acetone treatment = 100, 6 h; for moisture content of the stratum corneum, 12 h after sample application: relative to content directly after acetone treatment = 100, 12 h; for moisture content of the stratum corneum, 24 h after sample application: relative to content directly after acetone treatment = 100, 24 h; for moisture content of the stratum corneum, 48 h after sample application: relative to content directly after acetone treatment = 100, 48 h
Method: The degree of the increase of moisture content in the skin was measured for the compounds obtained in the Examples. The increase of moisture content in the skin was measured by dividing 50 hairless Guinea pigs into 10 groups, and applying the compounds obtained in the Examples to each group.
Specifically, after the skin barrier was damaged by patching acetone using Finn chamber for 30 minutes to the flank site of the experiment animals, 200 μl of each experimental substance was applied to the patched site, then the moisture content of the stratum corneum of the site was measured using Corneometer and then evaluated. Apparatus measurements were carried out directly after and 6 hours, 12 hours, 24 hours and 48 hours after removing the acetone patch. Changes of moisture content in the skin were evaluated relative to the content measured directly after the acetone treatment, which was set to be 100.

[2] = Evaluation of moisture retaining ability in dry conditions (weight change, 18° C., RH 20%); format: physicochemical; details: initial moisture content 60%, constant temperature and humidity chamber 18° C.
Method: Moisture retaining ability was evaluated and compared for the compounds obtained in the Examples.
Specifically, samples were prepared such that the moisture content of the compounds obtained in the Examples was 60%, and while the samples were kept in a constant temperature and humidity chamber (18° C., RH 20%), the weight change of the samples was observed over time, thereby enabling evaluation of the changes in moisture content.

| Compound | moisture content of the stratum corneum, 6 h after sample application [1] | moisture content of the stratum corneum, 12 h after sample application [1] | moisture content of the stratum corneum, 24 h after sample application [1] | moisture content of the stratum corneum, 48 h after sample application [1] | moisture content of sample, 1 h [2] [%] | moisture content of sample, 2 h [2] [%] | moisture content of sample, 4 h [2] [%] | moisture content of sample, 6 h [2] [%] |
| --- | --- | --- | --- | --- | --- | --- | --- | --- |
| OCC(O)CO [Glycerol, reference compound] | 109 | 113 | 115 | 117 | 57 | 50 | 41 | 25 |
| pentaerythritol ethoxylate (3/4 EO/OH) glycolic ester ethoxylate cetyl ether (pentaerythritol ethoxylate (3/4 EO/OH) ceteth-4 carboxylate) [Example 22] | 100 | 105 | 109 | 115 | 56 | 52 | 48 | 43 |
| pentaerythritol ethoxylate (3/4 EO/OH) glycolic ester ethoxylate octyl ether(pentaerythritol ethoxylate (3/4 EO/OH) capreth-4 carboxylate) [Example 17] | 103 | 106 | 108 | 104 | 57 | 53 | 47 | 38 |
| pentaerythritol ethoxylate (15/4 EO/OH) glycolic ester ethoxylate cetyl ether (pentaerythritol ethoxylate (15/4 EO/OH) ceteth-10 carboxylate) [Example 38] | 108 | 111 | 112 | 114 | 58 | 52 | 44 | 29 |
| pentaerythritol ethoxylate (15/4 EO/OH) glycolic ester ethoxylate hexyl ether (pentaerythritol ethoxylate (15/4 EO/OH) hexeth-4 carboxylate) [Example 29] | 106 | 109 | 111 | 109 | 57 | 55 | 50 | 43 |
| pentaerythritol ethoxylate (15/4 EO/OH) glycolic ester ethoxylate lauryl ether (pentaerythritol ethoxylate (15/4 EO/OH) laureth-6 carboxylate) [Example 34] | 105 | 110 | 116 | 114 | 58 | 56 | 49 | 45 |
| pentaerythritol ethoxylate (15/4 EO/OH) glycolic ester ethoxylate stearyl ether (pentaerythritol ethoxylate (15/4 EO/OH) steareth-10 carboxylate) [Example 42] | 106 | 110 | 109 | 111 |  |  |  |  |
| pentaerythritol glycolic ester ethoxylate cetyl ether (pentaerythritol ceteth-10 carboxylate) [Example 10] | 101 | 105 | 109 | 113 | 58 | 57 | 50 | 44 |
| pentaerythritol glycolic ester ethoxylate lauryl ether (pentaerythritol laureth-4 carboxylate) [Example 5] | 98 | 99 | 103 | 105 | 58 | 55 | 49 | 41 |
